Measured values as given in ChEMBL document CHEMBL4689842, “EUbOPEN Chemogenomics Library wave 1” (2021).

Tests used:
Assay type in all cases: toxicity, cell-based
Fibroblast = assay: Incucyte cell viability with human fibroblast; settings: 10 µM, compound concentration 10 uM
HEK-293T = assay: Incucyte cell viability with HEK293T; settings: human, 10 µM, compound concentration 10 uM
U2OS = assay: Incucyte cell viability with U2OS; settings: human, 10 µM, compound concentration 10 uM
[1] = 0 h, replicate number 1, timepoint 0 hours
[2] = 6 h, replicate number 1, timepoint 6 hours
[3] = 6 h, replicate number 2, timepoint 6 hours
[4] = 12 h, replicate number 1, timepoint 12 hours
[5] = 18 h, replicate number 1, timepoint 18 hours
[6] = 18 h, replicate number 2, timepoint 18 hours
[7] = 24 h, replicate number 1, timepoint 24 hours
[8] = 24 h, replicate number 2, timepoint 24 hours
[9] = 0 h, replicate number 2, timepoint 0 hours
[10] = 12 h, replicate number 2, timepoint 12 hours
Also: filed as whole numbers so only -1 and 0 and 1 occur.

Row | Compound | Growth Rate (Fibroblast; [1]) | Growth Rate (Fibroblast; [2]) | Growth Rate (Fibroblast; [3]) | Growth Rate (Fibroblast; [4]) | Growth Rate (Fibroblast; [5]) | Growth Rate (Fibroblast; [7]) | Growth Rate (Fibroblast; [8]) | Growth Rate (HEK-293T; [9]) | Growth Rate (HEK-293T; [2]) | Growth Rate (HEK-293T; [4]) | Growth Rate (HEK-293T; [5]) | Growth Rate (HEK-293T; [7]) | Growth Rate (U2OS; [4]) | Growth Rate (U2OS; [5]) | Growth Rate (U2OS; [7]) | Growth Rate (HEK-293T; [1]) | Growth Rate (HEK-293T; [6]) | Growth Rate (U2OS; [1]) | Growth Rate (U2OS; [3]) | Growth Rate (U2OS; [8]) | further results
1 | O=S1(=O)c2cccc3cccc(c23)N1CCCN1CCN(c2ccc(F)cc2)CC1 [FANANSERIN] | 0 | 1 | 0 | 0 | 1 | 1 | 0 | 0 | 0 | 0 | 0 | 0 | 1 | 1 | 1 | – | – | – | – | – | Growth Rate (Fibroblast; [6]): 0; Growth Rate (U2OS; [9]): 0
2 | C[C@]1(C(=O)N(CCCC(=O)O)Cc2cccc(Cl)c2)CCN1C(=O)c1csc2ccccc12 [GLPG-0974] | 0 | 0 | – | 0 | 1 | 1 | – | 0 | 1 | 1 | 1 | 1 | 1 | 1 | 1 | 1 | 0 | 0 | 1 | – | Growth Rate (Fibroblast; [9]): 1; Growth Rate (HEK-293T; [3]): 0; Growth Rate (HEK-293T; [10]): 0; Growth Rate (HEK-293T; [8]): 0
3 | CN(C)C(=O)Cn1cc(-c2nc([C@@](C)(c3ccc(-c4cnc(N)nc4)cc3)C3CC3)no2)cn1 [BI 665915] | 1 | 1 | – | 1 | 0 | 0 | 1 | 1 | 0 | 0 | 0 | 0 | 1 | 0 | 1 | 0 | 1 | 0 | 1 | 0 | Growth Rate (Fibroblast; [6]): 1; Growth Rate (HEK-293T; [10]): 1; Growth Rate (HEK-293T; [8]): 1; Growth Rate (U2OS; [2]): 0
4 | CC(C)Oc1ccc(-c2c[nH]cc2CN(C)CCN)cc1 | 0 | – | 0 | – | 1 | 1 | 0 | 1 | – | – | – | – | 1 | 0 | 0 | 0 | – | 0 | – | 1 | Growth Rate (Fibroblast; [10]): 0; Growth Rate (Fibroblast; [6]): 0; Growth Rate (HEK-293T; [8]): 1; Growth Rate (U2OS; [2]): 0; Growth Rate (U2OS; [6]): 1
5 | O=C(O)C1CN(Cc2ccc(-c3nc4cc(Cc5ccccc5F)ccc4s3)c(F)c2)C1 | 0 | 1 | 0 | 1 | 1 | 1 | – | 0 | 0 | 0 | 0 | 0 | 1 | 0 | 1 | 1 | – | 0 | 0 | 0 | Growth Rate (U2OS; [10]): 0; Growth Rate (U2OS; [6]): 1
6 | Cn1c(CNc2cccc(C(=O)NCc3ccccc3C(F)(F)F)c2)nnc1-c1ccncc1 | 1 | 0 | – | 0 | 0 | 0 | – | – | – | – | – | – | 0 | 0 | 0 | 0 | – | – | – | – | Growth Rate (Fibroblast; [9]): 0; Growth Rate (HEK-293T; [8]): 1; Growth Rate (U2OS; [9]): 0; Growth Rate (U2OS; [2]): 0; Growth Rate (U2OS; [10]): 1
7 | O=C(NCc1ncc(C(F)(F)F)cc1Cl)c1ccc2c(c1)C1(CCS(=O)(=O)CC1)[C@@H](C1CC1)N2S(=O)(=O)c1ccc(F)cc1 [BAY-786] | 0 | 1 | – | 1 | 1 | 1 | – | – | 1 | 0 | 0 | 0 | 1 | 1 | 0 | 0 | 1 | 0 | 0 | – | Growth Rate (Fibroblast; [9]): 1; Growth Rate (HEK-293T; [10]): 1; Growth Rate (HEK-293T; [8]): 1; Growth Rate (U2OS; [6]): 0
8 | C[C@H](NC[C@H](O)CP(=O)(O)CC1CCCCC1)c1ccc(Cl)c(Cl)c1.Cl | 0 | 0 | – | 1 | 0 | 0 | 1 | 0 | 0 | 1 | 1 | 1 | 1 | 1 | 1 | 1 | 0 | 0 | 0 | 0 | Growth Rate (HEK-293T; [3]): 1; Growth Rate (U2OS; [10]): 0
9 | CC#CC(=O)N1CCC[C@H]1c1nc(-c2ccc(C(=O)Nc3ccccn3)cc2)c2c(N)nccn12 [ACALABRUTINIB] | 0 | 1 | 0 | 0 | 0 | 1 | 0 | – | 0 | 0 | 0 | 0 | 0 | 0 | 1 | 1 | 1 | 0 | – | 0 | Growth Rate (Fibroblast; [10]): 1; Growth Rate (U2OS; [9]): 1; Growth Rate (U2OS; [2]): 0
10 | Cc1cc(-n2nc(Cc3cc(F)cc(C(F)(F)F)c3)nc2C)ccc1C(N)=O [TP-024] | 0 | 1 | 0 | 1 | 1 | 1 | 0 | 0 | 0 | 0 | 0 | 0 | 0 | 0 | 0 | 1 | – | – | 1 | 1 | Growth Rate (Fibroblast; [9]): 1; Growth Rate (Fibroblast; [10]): 0; Growth Rate (Fibroblast; [6]): 0; Growth Rate (U2OS; [2]): 0; Growth Rate (U2OS; [10]): 1; Growth Rate (U2OS; [6]): 1
11 | Cl.Clc1ccc(CCCOCCCN2CCCCC2)cc1 [PITOLISANT HYDROCHLORIDE] | 0 | – | – | – | 1 | 1 | – | 0 | 0 | 0 | 0 | 0 | 1 | 1 | 1 | – | – | 0 | – | – | –
12 | O=C(Nc1ccc(Oc2ccc(F)cc2)cc1)N1CCc2ncccc2[C@H]1c1ccc(F)cc1 [BAY-897] | 0 | 1 | 0 | 1 | 1 | 1 | – | – | 0 | 0 | 0 | 0 | 1 | 1 | 1 | 0 | – | 0 | – | – | –
